From patent US20150225454A1, “TETRABRANCHED PEPTIDES AND ANALOGUES AS A NEW CLASS OF ANTIMICROBIALS AND THEIR PREPARATION THEREOF” (priority 2012, published 2015)
In brackets after ≈: the same amount, converted by molar mass. Where a SMILES comes first, the peptide text is derived from it. Bridges are numbered along the chain shown (N, C = ends). Roman numbers before positions name the chains, in order. Where no end group is shown, it is not given here.

Tests used:
[1] = temperature or pH; cited from earlier work
C. albicans = assay: microbe, parasite or virus in culture; assay type: cell-based; details: for antifungal activity: against both C. albicans and Fusarium strains
Method: The yeast strains were cultivated and suspended in Sabouraud's Dextrose (SD) broth diluted at one sixth at a starting OD600=˜0.08 in a flat-bottomed microtitre plate. A serial dilution of peptide in the same broth was mixed with the inoculum to give a final peptide concentration of 0.4-22 μM. The antifungal activity was assessed by monitoring the OD600 in cycles of 30 minutes and an orbital shaking at 100 rpm using an Infinite M200 microplate reader (Tecan Group Ltd., Switzerland) for 24/48 h at 37° C. Cultures without peptides were used as positive controls and broth alone or with 22 μM peptide served as negative controls. The minimum concentration required for complete inhibition was assessed by both visible observations as well as by measuring the OD600 and taken as the MIC. Each experiment was repeated in triplicates.

fungi = details: cited from earlier work
[2] = cited from earlier work
[3] = Calcein release from fungal model membrane SUVs; details: peptide:lipid ratio 1:30 and 1:15
Method: For the preparation of PC/PE/PI or PS/Erg SUV, the lipids were dissolved in chloroform/methanol (2:1, v/v) in a glass tube. Ergosterol was dissolved in same solvent and added to lipid mixture to make final ergosterol content of 15 wt %. The Lipid-ergosterol mixture was dried using nitrogen gas to form lipid layer. The film was hydrated in a buffer containing 20 mM PBS (pH 7), vortexed and sonicated. Each cycle of sonication (5 sec, 40° C.) is followed by freezing in liquid nitrogen and thawing on a water bath kept at 37° C. The procedure was repeated 5-6 times until an optically clear dispersion appeared. The SUV was divided into two parts. To the first part 50 mM calcein was added and incubated for 1 h. The excess calcein was removed by injecting 100 μL of the calcein-loaded SUV's into a Ultrahydrogel™ 250 (7.8 mm×300 mm) column equilibrated with 20 mM PBS (pH 7.0) and eluted isochratically at a flow rate of 1 ml/min for 1.5 column volumes. The calcein-loaded liposomes were mixed with calcein-free liposome (1:1) to adjust final liposome concentration. Peptide concentration was added to obtain 1:30 or 1:15 peptide:liposome ratio. Changes in the fluorescence signal after addition of peptide or Triton X-100 was measured on a PTI spectrofluorometer, using an excitation wavelength of 480 nm and emission wavelength of 512 nm. The Percentage calcein released at each time point was calculated using the equation: […]
Similar protocol was followed for the preparation of PC/Cholesterol SUVs.

IOBA-NHC cells = assay type: cell-based, human; details: 24 h
Method in brief: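 Subconfluent (~70%) IOBA-NHC conjunctival cells, passages 50–80, seeded ~10,000/well and grown 24 h at 37 °C in supplemented DMEM/F12 with 10% FBS. Exposed to peptide at 0.22–225 μM; cytotoxicity followed over time by MultiTox-Fluor […] fluorescence (ex 485/em 520 nm).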

Row | Molecule | Solubility [1] | Activity (fungi) | other results
1 | CCC(C)n1ncn(-c2ccc(N3CCN(c4ccc(OCC5COC(Cn6cncn6)(c6ccc(Cl)cc6Cl)O5)cc4)CC3)cc2)c1=O (centres unmarked) [Itraconazole] | 0.00047 mg/L (≈ 6.66e-07 mM) |  | 
2 | RGRKVVRRKK [Monomer, reference compound] |  |  | antifungal activity (C. albicans): weak antifungal activity
3 | CC(=O)N1CCN(c2ccc(OCC3COC(Cn4ccnc4)(c4ccc(Cl)cc4Cl)O3)cc2)CC1 (centres unmarked) [Ketaconazole] | 0.09 (25° C.) mg/L | Broad spectrum | 
4 | CN(C/C=C/C#CC(C)(C)C)Cc1cccc2ccccc12 [Terbinafine] | 0.00074 mg/L (≈ 2.54e-06 mM) | Broad spectrum | logP [2]: 5.9
5 | C[C@@H]1[C@H](O)[C@@H](C)/C=C/C=C/CC/C=C/C=C/C=C/C=C/C(O[C@H]2O[C@H](C)[C@@H](O)[C@H](N)[C@@H]2O)CC2O[C@](O)(CC(O)C(O)CCC(O)CC(O)CC(O)CC(=O)O[C@H]1C)CC(O)C2C(=O)O (some centres unmarked) [Nystatin] | 360 (24° C.) mg/L | Broad spectrum | logP [2]: 0.5
6 | RGRKVVRRKKKRRVVKRGR [Linear Retrodimer, reference compound] |  |  | antifungal activity (C. albicans): weak antifungal activity
7 | CC(C)[C@H](NC(=O)[C@H](CCCCN)NC(=O)[C@H](CCCNC(=N)N)NC(=O)CNC(=O)[C@@H](N)CCCNC(=N)N)C(=O)N[C@H](C(=O)N[C@@H](CCCNC(=N)N)C(=O)N[C@@H](CCCNC(=N)N)C(=O)NCCCC[C@H](NC(=O)[C@H](CCCNC(=N)N)NC(=O)[C@H](CCCNC(=N)N)NC(=O)[C@@H](NC(=O)[C@@H](NC(=O)[C@H](CCCCN)NC(=O)[C@H](CCCNC(=N)N)NC(=O)CNC(=O)[C@@H](N)CCCNC(=N)N)C(C)C)C(C)C)C(=O)N[C@@H](CCCCN)C(=O)O)C(C)C [Peptide B2088, reference compound] (I: H-RGRKVVRRKK-OH / II: H-RGRKVVRR; amide I:9-II:C; N-terminus and C-terminus assumed) |  |  | decrease in MIC compared to the monomer (C. albicans): ~14 ×; calcein release [3]: decreased calcein release
8 | Clc1ccc(COC(Cn2ccnc2)c2ccc(Cl)cc2Cl)c(Cl)c1 (centres unmarked) [Miconazole] |  | Broad spectrum | 
9 | OC(Cn1cncn1)(Cn1cncn1)c1ccc(F)cc1F [Fluconazole] | 1 mg/L (≈ 0.00327 mM) | Broad spectrum. Less effective against | 
10 | CC(C)[C@H](N)C(=O)N[C@@H](CCCNC(=N)N)C(=O)NCC(=O)N[C@@H](CCCNC(=N)N)C(=O)N[C@H](C(=O)N[C@@H](CCCNC(=N)N)C(=O)N[C@@H](CCCCN)C(=O)N[C@@H](CCCNC(=N)N)C(=O)NCCCC[C@H](NC(=O)[C@H](CCCNC(=N)N)NC(=O)[C@H](CCCCN)NC(=O)[C@H](CCCNC(=N)N)NC(=O)[C@@H](NC(=O)[C@H](CCCNC(=N)N)NC(=O)CNC(=O)[C@H](CCCNC(=N)N)NC(=O)[C@@H](N)C(C)C)C(C)C)C(=O)NCCCC[C@H](NC(=O)[C@H](CCCCNC(=O)[C@H](CCCNC(=N)N)NC(=O)[C@H](CCCCN)NC(=O)[C@H](CCCNC(=N)N)NC(=O)[C@@H](NC(=O)[C@H](CCCNC(=N)N)NC(=O)CNC(=O)[C@H](CCCNC(=N)N)NC(=O)[C@@H](N)C(C)C)C(C)C)NC(=O)[C@H](CCCNC(=N)N)NC(=O)[C@H](CCCCN)NC(=O)[C@H](CCCNC(=N)N)NC(=O)[C@@H](NC(=O)[C@H](CCCNC(=N)N)NC(=O)CNC(=O)[C@H](CCCNC(=N)N)NC(=O)[C@@H](N)C(C)C)C(C)C)C(=O)N[C@@H](CCCCN)C(=O)O)C(C)C [Sc_B4010] (I: H-VRGRVRKRKKK-OH / II: H-VRGRVRKRK / III: H-VRGRVRKR / IV: H-VRGRVRKR; amide I:9-IV:C, I:10-II:C, II:9-III:C; N-terminus and C-terminus assumed) |  |  | increase in MIC on scrambling the sequence of B4010 (C. albicans): 2-4 fold; calcein release [3]: decreased calcein release; calcein release ([3]; listed as scrambled peptide): about 41%
11 | Nc1nc(=O)[nH]cc1F [Peptide 5-FC, 5-FC] | 1.05e+06 mg/L (≈ 8130 mM) | Not active against filamentous fungii | logP [2]: −1.1
12 | CC[C@H](C)C[C@H](C)CCCCCCCCC(=O)N[C@H]1C[C@@H](O)[C@@H](NCCN)NC(=O)[C@@H]2[C@@H](O)CCN2C(=O)[C@H]([C@H](O)CCN)NC(=O)[C@H]([C@H](O)[C@@H](O)c2ccc(O)cc2)NC(=O)[C@@H]2C[C@@H](O)CN2C(=O)[C@H]([C@@H](C)O)NC1=O [Caspofungin] | 370 mg/L (≈ 0.338 mM) | Effective against Candida spp | 
13 | CC(C)[C@H](NC(=O)[C@H](C)NC(=O)[C@H](CCCNC(=N)N)NC(=O)CNC(=O)[C@@H](N)CCCNC(=N)N)C(=O)N[C@H](C(=O)N[C@@H](CCCNC(=N)N)C(=O)N[C@@H](CCCNC(=N)N)C(=O)NCCCC[C@H](NC(=O)[C@H](CCCNC(=N)N)NC(=O)[C@H](CCCNC(=N)N)NC(=O)[C@@H](NC(=O)[C@@H](NC(=O)[C@H](C)NC(=O)[C@H](CCCNC(=N)N)NC(=O)CNC(=O)[C@@H](N)CCCNC(=N)N)C(C)C)C(C)C)C(=O)NCCCC[C@H](NC(=O)[C@H](CCCCNC(=O)[C@H](CCCNC(=N)N)NC(=O)[C@H](CCCNC(=N)N)NC(=O)[C@@H](NC(=O)[C@@H](NC(=O)[C@H](C)NC(=O)[C@H](CCCNC(=N)N)NC(=O)CNC(=O)[C@@H](N)CCCNC(=N)N)C(C)C)C(C)C)NC(=O)[C@H](CCCNC(=N)N)NC(=O)[C@H](CCCNC(=N)N)NC(=O)[C@@H](NC(=O)[C@@H](NC(=O)[C@H](C)NC(=O)[C@H](CCCNC(=N)N)NC(=O)CNC(=O)[C@@H](N)CCCNC(=N)N)C(C)C)C(C)C)C(=O)N[C@@H](CCCCN)C(=O)O)C(C)C [Peptide B4010-K4A] (I: H-RGRAVVRRKKK-OH / II: H-RGRAVVRRK / III: H-RGRAVVRR / IV: H-RGRAVVRR; amide I:9-IV:C, I:10-II:C, II:9-III:C) |  |  | EC50 (IOBA-NHC cells): > 231 µM
14 | CC(C)[C@H](NC(=O)[C@H](CCCCN)NC(=O)[C@H](CCCNC(=N)N)NC(=O)CNC(=O)[C@@H](N)CCCNC(=N)N)C(=O)N[C@H](C(=O)N[C@@H](C)C(=O)N[C@@H](CCCNC(=N)N)C(=O)NCCCC[C@H](NC(=O)[C@H](CCCNC(=N)N)NC(=O)[C@H](C)NC(=O)[C@@H](NC(=O)[C@@H](NC(=O)[C@H](CCCCN)NC(=O)[C@H](CCCNC(=N)N)NC(=O)CNC(=O)[C@@H](N)CCCNC(=N)N)C(C)C)C(C)C)C(=O)NCCCC[C@H](NC(=O)[C@H](CCCCNC(=O)[C@H](CCCNC(=N)N)NC(=O)[C@H](C)NC(=O)[C@@H](NC(=O)[C@@H](NC(=O)[C@H](CCCCN)NC(=O)[C@H](CCCNC(=N)N)NC(=O)CNC(=O)[C@@H](N)CCCNC(=N)N)C(C)C)C(C)C)NC(=O)[C@H](CCCNC(=N)N)NC(=O)[C@H](C)NC(=O)[C@@H](NC(=O)[C@@H](NC(=O)[C@H](CCCCN)NC(=O)[C@H](CCCNC(=N)N)NC(=O)CNC(=O)[C@@H](N)CCCNC(=N)N)C(C)C)C(C)C)C(=O)N[C@@H](CCCCN)C(=O)O)C(C)C [Peptide B4010-R7A] (I: H-RGRKVVARKKK-OH / II: H-RGRKVVARK / III: H-RGRKVVAR / IV: H-RGRKVVAR; amide I:9-IV:C, I:10-II:C, II:9-III:C) |  |  | EC50 (IOBA-NHC cells): > 237 µM
